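Dose response: 5 concentrations. Exposure: 48 h. Format: 96-well plates. Endpoint: linear interpolation; highest concentration if not reached. Abbreviation: GI50, concentration required for 50% inhibition of growth.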 Active and inactive are the calls of the source. No stated cut-off is given here; in the data, active = GI50 up to about 1.1 µM and inactive = higher.
Experiments:
Assay in all cases: growth of human tumour cells (NCI), 48 h
MDA-MB-231 = tested on: MDA-MB-231
CAKI-1 = tested on: CAKI-1
MCF7 = tested on: MCF7
PC-3 = tested on: PC-3
NCI-H226 = tested on: NCI-H226
M14 = tested on: M14
CCRF-CEM = tested on: CCRF-CEM
NCI-H460 = tested on: NCI-H460
UO-31 = tested on: UO-31
K562 = tested on: K562
OVCAR-8 = tested on: OVCAR-8
UACC-257 = tested on: UACC-257
786-0 = tested on: 786-0
HT-29 = tested on: HT-29
SK-MEL-5 = tested on: SK-MEL-5
SF-295 = tested on: SF-295
A549 = tested on: A549
SNB-19 = tested on: SNB-19
OVCAR-5 = tested on: OVCAR-5
NCI-H522 = tested on: NCI-H522
RXF 393 = tested on: RXF 393
RPMI-8226 = tested on: RPMI-8226
SN12C = tested on: SN12C
Malme-3M = tested on: Malme-3M
SNB-75 = tested on: SNB-75
EKVX = tested on: EKVX
BT-549 = tested on: BT-549
NCI-H23 = tested on: NCI-H23
UACC-62 = tested on: UACC-62
SR = tested on: SR
SK-OV-3 = tested on: SK-OV-3
COLO 205 = tested on: COLO 205
SW-620 = tested on: SW-620
MDA-N = tested on: MDA-N
SK-MEL-28 = tested on: SK-MEL-28
SF-268 = tested on: SF-268
NCI/ADR-RES = tested on: NCI/ADR-RES
DU-145 = tested on: DU-145
MDA-MB-435 = tested on: MDA-MB-435
KM12 = tested on: KM12
HOP-92 = tested on: HOP-92
SF-539 = tested on: SF-539
HCT-15 = tested on: HCT-15
U-251 = tested on: U-251
MOLT-4 = tested on: MOLT-4
Hs-578T = tested on: Hs-578T
SK-MEL-2 = tested on: SK-MEL-2
TK-10 = tested on: TK-10
A498 = tested on: A498
HL-60 = tested on: HL-60
HCC 2998 = tested on: HCC 2998
LOX IMVI = tested on: LOX IMVI
OVCAR-4 = tested on: OVCAR-4
HOP-62 = tested on: HOP-62
HCT-116 = tested on: HCT-116
ACHN = tested on: ACHN
IGROV-1 = tested on: IGROV-1
OVCAR-3 = tested on: OVCAR-3
T47D = tested on: T47D

CC(=O)N(C(C)=O)n1c(Cc2ccc(Cl)cc2)n[nH]c1=O
GI50 (MDA-MB-231): > 100 µM (inactive) | GI50 (CAKI-1): > 100 µM (inactive) | GI50 (MCF7): > 100 µM (inactive) | GI50 (PC-3): > 100 µM (inactive) | GI50 (NCI-H226): > 100 µM (inactive) | GI50 (M14): > 100 µM (inactive) | GI50 (CCRF-CEM): > 100 µM (inactive) | GI50 (NCI-H460): > 100 µM (inactive) | GI50 (UO-31): > 100 µM (inactive) | GI50 (K562): > 100 µM (inactive) | GI50 (OVCAR-8): > 100 µM (inactive) | GI50 (UACC-257): > 100 µM (inactive) | GI50 (786-0): > 100 µM (inactive) | GI50 (HT-29): > 100 µM (inactive) | GI50 (SK-MEL-5): > 100 µM (inactive) | GI50 (SF-295): > 64.4 µM (inactive) | GI50 (A549): > 100 µM (inactive) | GI50 (SNB-19): > 100 µM (inactive) | GI50 (OVCAR-5): > 100 µM (inactive) | GI50 (NCI-H522): > 100 µM (inactive) | GI50 (RXF 393): 28.5 µM (inactive) | GI50 (RPMI-8226): > 100 µM (inactive) | GI50 (SN12C): > 100 µM (inactive) | GI50 (Malme-3M): > 52.7 µM (inactive) | GI50 (SNB-75): > 81.8 µM (inactive) | GI50 (EKVX): > 100 µM (inactive) | GI50 (BT-549): > 100 µM (inactive) | GI50 (NCI-H23): > 100 µM (inactive) | GI50 (UACC-62): > 100 µM (inactive) | GI50 (SR): > 100 µM (inactive) | GI50 (SK-OV-3): > 100 µM (inactive) | GI50 (COLO 205): > 100 µM (inactive) | GI50 (SW-620): > 100 µM (inactive) | GI50 (MDA-N): > 100 µM (inactive) | GI50 (SK-MEL-28): > 100 µM (inactive) | GI50 (SF-268): > 100 µM (inactive) | GI50 (NCI/ADR-RES): > 100 µM (inactive) | GI50 (DU-145): > 100 µM (inactive) | GI50 (MDA-MB-435): > 100 µM (inactive) | GI50 (KM12): > 100 µM (inactive) | GI50 (HOP-92): > 100 µM (inactive) | GI50 (SF-539): > 100 µM (inactive) | GI50 (HCT-15): > 100 µM | GI50 (U-251): > 100 µM (inactive) | GI50 (MOLT-4): > 100 µM (inactive) | GI50 (Hs-578T): > 100 µM (inactive) | GI50 (SK-MEL-2): > 100 µM (inactive) | GI50 (TK-10): > 100 µM (inactive) | GI50 (A498): > 100 µM (inactive) | GI50 (HL-60): > 100 µM (inactive) | GI50 (HCC 2998): > 100 µM (inactive) | GI50 (LOX IMVI): > 88.5 µM (inactive) | GI50 (OVCAR-4): > 100 µM (inactive) | GI50 (HOP-62): > 55.8 µM (inactive) | GI50 (HCT-116): > 100 µM (inactive) | GI50 (ACHN): > 100 µM (inactive) | GI50 (IGROV-1): > 100 µM (inactive) | GI50 (OVCAR-3): > 100 µM (inactive)

CCOC(=O)c1sc2nc(SC)nc(Nc3ccc4c(c3)OCCO4)c2c1N
GI50 (MDA-MB-231): 11.1 µM (inactive) | GI50 (CAKI-1): 22.9 µM (inactive) | GI50 (MCF7): 10.5 µM (inactive) | GI50 (PC-3): 13.2 µM (inactive) | GI50 (NCI-H226): 3.33 µM (inactive) | GI50 (M14): 11 µM (inactive) | GI50 (CCRF-CEM): 16.9 µM (inactive) | GI50 (NCI-H460): 17.5 µM (inactive) | GI50 (UO-31): 15 µM (inactive) | GI50 (K562): 20.6 µM (inactive) | GI50 (OVCAR-8): 5.12 µM (inactive) | GI50 (UACC-257): 21.7 µM (inactive) | GI50 (HT-29): 21 µM (inactive) | GI50 (SK-MEL-5): 7.53 µM (inactive) | GI50 (SF-295): 42.3 µM (inactive) | GI50 (A549): 10 µM (inactive) | GI50 (SNB-19): 17.6 µM (inactive) | GI50 (OVCAR-5): 17.1 µM (inactive) | GI50 (NCI-H522): 6.76 µM (inactive) | GI50 (RXF 393): 3.93 µM (inactive) | GI50 (RPMI-8226): 12.6 µM (inactive) | GI50 (SN12C): 8.49 µM (inactive) | GI50 (Malme-3M): 12 µM (inactive) | GI50 (EKVX): 9.59 µM (inactive) | GI50 (BT-549): 16 µM (inactive) | GI50 (NCI-H23): 14.2 µM (inactive) | GI50 (UACC-62): 11.4 µM (inactive) | GI50 (SR): 20.5 µM (inactive) | GI50 (COLO 205): 5.45 µM (inactive) | GI50 (SW-620): 19.5 µM (inactive) | GI50 (MDA-N): 10.4 µM (inactive) | GI50 (SK-MEL-28): > 100 µM (inactive) | GI50 (SF-268): 4.69 µM (inactive) | GI50 (NCI/ADR-RES): 21.6 µM (inactive) | GI50 (DU-145): 14.1 µM (inactive) | GI50 (MDA-MB-435): 18 µM (inactive) | GI50 (KM12): 44.6 µM (inactive) | GI50 (HOP-92): 13.1 µM (inactive) | GI50 (SF-539): 7.52 µM (inactive) | GI50 (U-251): 5.87 µM (inactive) | GI50 (MOLT-4): 8.05 µM (inactive) | GI50 (SK-MEL-2): 15 µM (inactive) | GI50 (TK-10): 15.2 µM (inactive) | GI50 (A498): 11.9 µM (inactive) | GI50 (HL-60): > 100 µM (inactive) | GI50 (HCC 2998): 25.7 µM (inactive) | GI50 (LOX IMVI): 30.6 µM (inactive) | GI50 (OVCAR-4): 10.7 µM (inactive) | GI50 (HOP-62): 11.8 µM (inactive) | GI50 (HCT-116): 6.3 µM (inactive) | GI50 (ACHN): 7.28 µM (inactive) | GI50 (IGROV-1): 29.9 µM (inactive) | GI50 (OVCAR-3): 13.5 µM (inactive) | GI50 (T47D): 6.34 µM (inactive)

CC(=O)n1nc(-c2ccccc2)n(/N=C/c2ccc([N+](=O)[O-])cc2)c1=O
GI50 (MDA-MB-231): 35 µM (inactive) | GI50 (CAKI-1): > 100 µM (inactive) | GI50 (PC-3): > 100 µM (inactive) | GI50 (NCI-H226): > 100 µM (inactive) | GI50 (M14): > 100 µM (inactive) | GI50 (CCRF-CEM): > 100 µM (inactive) | GI50 (NCI-H460): > 100 µM (inactive) | GI50 (UO-31): > 100 µM (inactive) | GI50 (K562): > 100 µM (inactive) | GI50 (OVCAR-8): 98.2 µM (inactive) | GI50 (UACC-257): > 100 µM (inactive) | GI50 (786-0): > 100 µM (inactive) | GI50 (HT-29): > 100 µM (inactive) | GI50 (SK-MEL-5): > 100 µM (inactive) | GI50 (SF-295): > 100 µM (inactive) | GI50 (A549): > 100 µM (inactive) | GI50 (SNB-19): > 100 µM (inactive) | GI50 (OVCAR-5): > 100 µM (inactive) | GI50 (NCI-H522): 51.3 µM (inactive) | GI50 (RXF 393): 65.9 µM (inactive) | GI50 (RPMI-8226): > 100 µM (inactive) | GI50 (SN12C): > 100 µM (inactive) | GI50 (Malme-3M): 90.8 µM (inactive) | GI50 (SNB-75): > 100 µM (inactive) | GI50 (EKVX): 31.1 µM (inactive) | GI50 (BT-549): > 100 µM (inactive) | GI50 (NCI-H23): > 100 µM (inactive) | GI50 (UACC-62): > 100 µM (inactive) | GI50 (SR): > 100 µM (inactive) | GI50 (SK-OV-3): 52.8 µM (inactive) | GI50 (COLO 205): > 100 µM (inactive) | GI50 (SW-620): > 100 µM (inactive) | GI50 (MDA-N): > 100 µM (inactive) | GI50 (SK-MEL-28): > 100 µM (inactive) | GI50 (SF-268): 43.5 µM (inactive) | GI50 (NCI/ADR-RES): > 100 µM (inactive) | GI50 (DU-145): > 100 µM (inactive) | GI50 (MDA-MB-435): > 100 µM (inactive) | GI50 (KM12): > 100 µM (inactive) | GI50 (HOP-92): 59.3 µM (inactive) | GI50 (SF-539): > 100 µM (inactive) | GI50 (HCT-15): > 100 µM | GI50 (U-251): > 100 µM (inactive) | GI50 (MOLT-4): > 100 µM (inactive) | GI50 (SK-MEL-2): > 100 µM (inactive) | GI50 (TK-10): > 100 µM (inactive) | GI50 (A498): > 100 µM (inactive) | GI50 (HL-60): > 100 µM (inactive) | GI50 (HCC 2998): > 100 µM (inactive) | GI50 (LOX IMVI): > 100 µM (inactive) | GI50 (OVCAR-4): 41.3 µM (inactive) | GI50 (HCT-116): > 100 µM (inactive) | GI50 (ACHN): > 100 µM (inactive) | GI50 (IGROV-1): > 100 µM (inactive) | GI50 (OVCAR-3): > 100 µM (inactive) | GI50 (T47D): > 100 µM (inactive)

Reference: ChEMBL document CHEMBL1201862, “PubChem BioAssay data set” (2004)
